No end group written: not given here.
How the values were obtained:
gene expression via CRE = assay: CRE-luciferase reporter stimulation in Namalwa KJM-1 / KJMGER8 cells carrying pACREpluc or pACRERluc; assay type: cell-based, human
Procedure: A reporter plasmid pACREpluc was dissolved in a TE buffer so as to make 1 μg/μl and the plasmid was transfected to Namalwa KJM-1 cells by an electroporation method [Cytotechnology, 3, 133 (1990)] using 4 μg to 6×10^6 cells to give transformants.
The transformants were subcultured in RPMI 1640-ITPSG medium containing hygromycin B (300 μg/ml).
In order to confirm whether gene expression via CRE took place, the transformants were stimulated under the following condition using 5′-N-ethylcarboxamide adenosine (NECA: manufactured by Sigma) which is an agonist of type 2a adenosine receptor (A2a), forskolin (manufactured by Sigma) which is an activator for adenylate cyclase or A23187 (manufactured by Research Biochemicals International) which is a calcium ionophore.
Thus, the above stable transformants were dispensed in an amount of 1×10^5 cells per well of a 48-well plate, then NECA (final concentration 100 nmol/L), forskolin (final concentration 100 μmol/L) or A23187 (final concentration 10 μmol/L) was added and stimulation was conducted by incubating in a CO2 incubator for 5 hours.
Accordingly, when the cells are stimulated by any substance, it is believed to be preferred to measure the activity after 6 hours from the stimulation.
After the incubation, firefly luciferase activity in each well was measured using the method mentioned in (4) of Example 18. With regard to a device for the measurement, Micro Lumat LB96P (manufactured by Berthold) was used. Seventeen clones having high activity were selected.
The 17 clones were used, stimulation with NECA was applied by the same manner as in the above (2), comparison with the case where no stimulation with NECA was conducted and 8 clones where luciferase activity rose to an extent of 60-fold or more were selected. Such 8 clones were named GBC1 to GBC8 respectively.
After that, coelenterazine h (Molecular Probes) (final concentration 250 nmol/L) was added to measure the activity of Renilla reniformis luciferase. For the measurement of the activity, a Wallac 1420 ARVOsx Multilable Counter (manufactured by Wallac Berthold Japan) was used. Nine clones having high activity were selected. The 9 clones were named GBCR1 to GBCR9, respectively.
With regard to the 9 clones, stimulation with NECA was conducted and, as compared with the case no stimulation with NECA was done, 2 clones where the activity of Renilla reniformis luciferase increased to an extent of not less than 18-fold were selected. The 2 clones were named GBCR1 and GBCR2, respectively.

GPR41 = molecular target: T1, GPR41 (Homo sapiens, UniProt O14843); assay: Screening of ligands or agonists of GPR41 (pAGal9-GPR41 in GBCRC6, Renilla luciferase); assay type: cell-based; conditions: for induction ratio of the reporters (agonist for GPR41): 100 μmol/L, 6 hours
T1 construct: expressed in transfected cells; host or cells: GBCRC6 (Namalwa KJM-1 derived)
T1 sequence (O14843 1-346): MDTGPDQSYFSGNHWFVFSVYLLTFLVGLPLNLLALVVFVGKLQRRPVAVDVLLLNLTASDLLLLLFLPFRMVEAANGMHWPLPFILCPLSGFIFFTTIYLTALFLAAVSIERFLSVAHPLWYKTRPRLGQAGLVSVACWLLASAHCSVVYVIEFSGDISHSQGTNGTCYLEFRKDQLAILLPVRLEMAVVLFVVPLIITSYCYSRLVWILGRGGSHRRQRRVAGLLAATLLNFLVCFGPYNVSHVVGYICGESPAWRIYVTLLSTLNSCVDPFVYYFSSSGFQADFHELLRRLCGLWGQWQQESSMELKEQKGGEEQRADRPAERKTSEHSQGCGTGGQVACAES
Procedure: With regard to a template, human chromosomal DNA (100 ng; manufactured by Clontech) was used. With regard to the GPR41 gene-specific primers, synthetic DNAs having sequences mentioned in SEQ ID NOS: 183 and 184, respectively, were used. To the above primers, a HindIII site and a NotI site were introduced, respectively. A PCR-amplified fragment was cleaved with HindIII and NotI to prepare a HindIII-NotI fragment. A plasmid […] was cleaved with HindIII and NotI to prepare a HindIII-NotI fragment. The HindIII-NotI fragment derived from PCR fragment and the HindIII-NotI fragment derived from […] were ligated to construct pAGal9-GPR41 which was an inducible expression plasmid of GPR41.

GPR43 = molecular target: T2, GPR43 (Homo sapiens, UniProt O15552); assay: Screening ligands or agonists of GPR43 (pAGal9-GPR43 in GBCRC6, Renilla luciferase); assay type: cell-based; conditions: 100 μmol/L; 6 hours
T2 construct: expressed in transfected cells; host or cells: GBCRC6 (Namalwa KJM-1 derived, co-expressing Gαs-q and Gαs-i)
T2 sequence (O15552 1-330): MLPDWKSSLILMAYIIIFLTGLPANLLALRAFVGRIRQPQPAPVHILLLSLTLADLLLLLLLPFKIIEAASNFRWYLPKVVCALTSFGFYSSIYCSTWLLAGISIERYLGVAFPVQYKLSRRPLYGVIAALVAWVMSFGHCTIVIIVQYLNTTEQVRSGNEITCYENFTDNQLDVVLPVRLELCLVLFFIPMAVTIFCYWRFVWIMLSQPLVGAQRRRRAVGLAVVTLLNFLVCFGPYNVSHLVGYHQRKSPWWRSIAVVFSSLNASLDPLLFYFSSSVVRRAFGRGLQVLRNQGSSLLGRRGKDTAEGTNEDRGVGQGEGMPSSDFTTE
Procedure: According to the method mentioned in (1) of Example 20, the GPR43 gene was prepared by PCR and the gene was inserted in an expression vector pAGal9-d to construct pAGal9-GPR43 which is an inducible expression plasmid of GPR43. With regard to a template, human chromosomal DNA (100 ng; manufactured by Clontech) was used. With regard to the GPR43 gene-specific primers, synthetic DNA having sequences mentioned in SEQ ID NOS: 181 and 182, respectively, were used. A HindIII site and a NotI site were introduced to the above primers, respectively.
PCR-amplified fragment was cleaved with HindIII and NotI to prepare a HindIII-NotI fragment. A plasmid pAGal9-d was cleaved with HindIII and NotI to prepare a HindIII-NotI fragment.
According to the method mentioned in (1) of Example 21, pAGal9-GPR43 was transfected to GBCRC6 to prepare stable transformants.

G10d = molecular target: T3, G10d (Homo sapiens, UniProt O15218); assay: Screening of ligands or agonists of G10d (pAGal9-G10d in GBCRC6, Renilla luciferase); assay type: cell-based; conditions: 6 hours
T3 construct: expressed in transfected cells; host or cells: GBCRC6 (Namalwa KJM-1 derived)
T3 sequence (O15218 whole entry): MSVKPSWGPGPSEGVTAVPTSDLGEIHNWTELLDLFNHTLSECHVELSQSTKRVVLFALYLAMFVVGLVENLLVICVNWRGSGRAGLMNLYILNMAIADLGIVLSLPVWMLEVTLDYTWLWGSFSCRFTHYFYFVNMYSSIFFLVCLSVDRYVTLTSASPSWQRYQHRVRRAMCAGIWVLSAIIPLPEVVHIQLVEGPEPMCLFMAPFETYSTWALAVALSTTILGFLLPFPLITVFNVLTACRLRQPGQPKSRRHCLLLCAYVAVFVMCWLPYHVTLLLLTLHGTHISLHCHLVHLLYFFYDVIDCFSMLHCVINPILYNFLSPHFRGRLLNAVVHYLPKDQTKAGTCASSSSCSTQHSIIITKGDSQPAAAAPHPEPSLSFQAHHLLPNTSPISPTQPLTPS
Procedure: According to the method mentioned in (1) of Example 20, the G10d gene was prepared by PCR and the gene was inserted in an expression vector pAGal9-d to construct pAGal9-G10d which is an inducible expression plasmid of G10d. With regard to a template, single-stranded DNAs derived from human spleen were used. With regard to the G10d gene-specific primers, synthetic DNAs having sequences mentioned in SEQ ID NOS: 185 and 186 were used. To the above primers, a HindIII site and a NotI site were introduced, respectively.
A PCR-amplified fragment was cleaved with HindIII and NotI to prepare a HindIII-NotI fragment. A plasmid pAGal9-d was cleaved with HindIII and NotI to prepare a HindIII-NotI fragment.
(§1) According to the method mentioned in (1) of Example 21, pAGal9-G10d was transfected to GBCRC6 to prepare stable transformants. […] It is possible to screen an antagonist for G10d using α-MSH or ACTH as an agonist.

[1] = tested on: GBCRC6 to which control vector (pAGal9-d) was transfected; assay: Control: GBCRC6 to which control vector (pAGal9-d) was transfected; assay type: cell-based, human
Excerpt: as §1

other GPCRs = assay: Specificity: assay cells to which other GPCRs were transfected; assay type: cell-based
[2] = molecular target: T4, melanocortin receptor type 1 (MC1R) (Homo sapiens, UniProt Q01726); assay: MC1R reporter assay in GBCR2 (pAGal9-MC1R), Renilla reniformis luciferase; assay type: cell-based; conditions: GBCR2 with pAGal9-MC1R, 17β-estradiol 10 nmol/L 24 hours; various concentrations, 6 hours
T4 construct: expressed in transfected cells; host or cells: GBCR2 (Namalwa KJM-1 derived)
T4 sequence (Q01726 whole entry): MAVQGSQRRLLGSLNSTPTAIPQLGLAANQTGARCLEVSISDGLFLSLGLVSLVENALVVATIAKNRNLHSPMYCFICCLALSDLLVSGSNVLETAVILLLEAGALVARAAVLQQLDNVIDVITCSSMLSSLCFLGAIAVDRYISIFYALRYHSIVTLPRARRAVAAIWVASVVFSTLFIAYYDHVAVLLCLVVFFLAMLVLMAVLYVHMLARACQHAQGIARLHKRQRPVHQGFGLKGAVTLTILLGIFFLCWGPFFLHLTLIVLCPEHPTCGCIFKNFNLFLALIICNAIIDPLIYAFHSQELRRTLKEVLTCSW
Procedure: One of the plasmids was named pAGal9-MC1R. The nucleotide sequence was determined by the method mentioned in the above (2).
According to the method mentioned in (1) of Example 21, pAGal9-MC1R was transfected to GBCR2 to prepare stable transformants.

CRE reporter in KJMGER8 = assay: Constitutive activity of GPCR, Method 5 (KJMGER8 co-transfected with pACREpluc, firefly luciferase); assay type: cell-based, human; conditions: 17β-estradiol 10 nmol/L, 1 day, activity with divided by activity without, control plasmid about 1
Procedure: After the cultivation, firefly luciferase activity was measured. […] It is judged that the higher the induction ratio of the cells to which a GPCR expression plasmid was transfected, the stronger the constitutive activity of the GPCR.

GPR12 = assay: Host clone selection: inducible expression of GPR12 (pAGal9-GPR12) by 17β-estradiol, CRE-luciferase readout; assay type: cell-based; conditions: 24 hours; for rising rate of luciferase activity upon addition of 17β-estradiol: 10 nmol/L, firefly luciferase
Procedure: To the 8 clones was transfected pAGal9-GPR12 [a plasmid for inducible expression of GPR12 which is a constitutively activated G-protein coupled receptor: refer to Example 22 which will be mentioned later] by the above electroporation method using 4 μg to 6×10^6 cells to prepare transformants.
pAGal9-GPR12 was transfected to the 2 clones to prepare stable transformants.

CCNC(=O)[C@H]1O[C@@H](n2cnc3c(N)ncnc32)[C@H](O)[C@@H]1O [NECA, 5′-N-ethylcarboxamide adenosine]
increase of Renilla reniformis luciferase activity versus no stimulation (gene expression via CRE; 2 clones GBCR1 and GBCR2 (KJMGER8 with integrated pACRERluc), NECA 100 nmol/L): not less than 18 fold | rise of firefly luciferase activity versus no stimulation (gene expression via CRE; 8 clones GBC1 to GBC8 (KJMGER8 with integrated pACREpluc), NECA stimulation): ≥ 60 fold | increase of firefly luciferase activity (gene expression via CRE; Namalwa KJM-1 with pACREpluc, NECA 100 nmol/L, 5 hours): about 7 fold | firefly luciferase activity after 24 hours (gene expression via CRE; Namalwa KJM-1 with pACREpluc, compared with highest activity at 6 hours): decreased to an extent of nearly one half | time after stimulation at which firefly luciferase activity was highest (gene expression via CRE; Namalwa KJM-1 with pACREpluc, measured after 6, 24, 48, 72 and 96 hours): 6 h

CCC(=O)O [propionic acid]
induction ratio of the reporters (agonist for GPR41) (GPR41): 21 fold | induction ratio of the reporter (agonist for GPR43) (GPR43): 5 fold

CC(=O)O [acetate]
induction ratio of the reporter (agonist for GPR43) (GPR43): 9 fold

CNc1ccc2oc(C[C@H]3O[C@@]4(CC[C@H]3C)O[C@H]([C@H](C)C(=O)c3ccc[nH]3)[C@H](C)C[C@H]4C)nc2c1C(=O)O [A23187]
change of firefly luciferase activity (gene expression via CRE; Namalwa KJM-1 with pACREpluc, A23187 10 μmol/L, 5 hours): rarely changed

ACTH: adrenocorticotropic hormone (SYSMEHFRWGKPVGKKRRPVKVYPNGAEDESAEAFPLEF)
induction ratio of the reporters (agonist for G10d) (G10d; 100 nmol/L of ACTH): 11 fold | action on GBCRC6 to which control vector (pAGal9-d) was transfected [1]: did not act

O=C(O)C1CC1 [cyclopropanecarboxylic acid]
action on assay cells to which other GPCRs were transfected (other GPCRs): did not act | induction ratio of the reporters (agonist for GPR41) (GPR41): 22 fold

human PAMP: peptide comprising 20 amino acids excised from a precursor protein of adrenomedullin (ARLDVASEFRKKWNKWALSR; ends and bridges not checked; UniProt P35318 22-41, looked up)
concentration at which MC1R reacts (Renilla luciferase reporter) [2]: very low concentration

GPR 26
Constitutive Activity (induction ratio) (CRE reporter in KJMGER8): 26-fold

C[C@]12CC[C@@H]3c4ccc(O)cc4CC[C@H]3[C@@H]1CC[C@@H]2O [17β-estradiol]
rising rate of luciferase activity upon addition of 17β-estradiol (GPR12; GBC5 with pAGal9-GPR12): 56 fold | rising rate of luciferase activity upon addition of 17β-estradiol (GPR12; GBC6 with pAGal9-GPR12): 193 fold | rising rate of luciferase activity upon addition of 17β-estradiol (GPR12; GBC7 with pAGal9-GPR12): 364 fold | rising rate of Renilla reniformis luciferase activity when 17β-estradiol was added (GPR12; GBCR2 with pAGal9-GPR12): 364 fold

human PAMP-12: peptide consisting of the 9th to 20th amino acid residues from N terminal of PAMP (FRKKWNKWALSR; ends and bridges not checked; UniProt P35318 30-41, looked up, fragment)
concentration at which MC1R reacts (Renilla luciferase reporter) [2]: very low concentration

α-MSH: α-melanocyte-stimulating hormone
induction ratio of the reporters (agonist for G10d) (G10d; 100 μmol/L of α-MSH): 10 fold | action on GBCRC6 to which control vector (pAGal9-d) was transfected [1]: did not act

GPR 3
Constitutive Activity (induction ratio) (CRE reporter in KJMGER8): 6.5-fold

C=C[C@@]1(C)CC(=O)[C@]2(O)[C@@]3(C)[C@@H](O)CCC(C)(C)[C@@H]3[C@H](O)[C@H](OC(C)=O)[C@@]2(C)O1 [forskolin]
increase of firefly luciferase activity (gene expression via CRE; Namalwa KJM-1 with pACREpluc, forskolin 100 μmol/L, 5 hours): about 10 fold

CC(=O)O [acetic acid]
action on assay cells to which other GPCRs were transfected (other GPCRs): did not act | agonist activity to GPR41 (GPR41): did not show an agonist activity | induction ratio of the reporter (agonist for GPR43) (GPR43): 4 fold

Source: patent US20100167397A1, “ENDOCRINE CELL LINES AND METHOD OF USING THE SAME” (KYOWA HAKKO KOGYO CO., LTD., priority 2002, published 2010)
